# Source: publication PMC5695911 (Cell Reports, 2017)
# Where two headings read alike, the source gives them in different places.
# Legend:
# [1] = tested on: cultured human hepatocytes (HepG2); experiment: cAMP in cultured human hepatocytes; assay type: cell-based
# INS1 cells [2] = assay type: cell-based, rat
# rats = details: i.v., 1 pmol, 20 min
# [3] = tested on: diabetic animal models (db/db and ob/ob mice); experiment: Administration of PG 1-61 to diabetic animal models; assay type: in vivo; details: 1 pmol; db/db (12 weeks, n=5) and ob/ob mice (14-15 weeks, n=3)
# isolated rat pancreases = experiment: Isolated perfused rat pancreas, insulin secretion
# [4] = tested on: human glucagon-like peptide 1 receptor (hGLP-1R); assay type: cell-based; details: COS-7 cells
# INS1 cells [5] = experiment: cAMP accumulation in cultured rat β cells; assay type: cell-based
# [6] = tested on: protein kinase A (PKA), glucose-6-phosphatase (G6P), phosphorylase kinase (PKC-1), glycogen phosphorylase (GP), phosphoenolpyruvate carboxykinase (PECK); assay type: cell-based, human
# [7] = tested on: human glucagon receptor (hGCGR); assay type: cell-based
sequence,measurement,setting,value
RSLQDTEEKSRSFSASQADPLSDPDQMNEDKRHSQGTFTSDYSKYLDSRRAQDFVQWLMNT [PG 1-61],stimulated increase in cAMP after siRNA knockdown of hGCGR vs siRNA control,"[1]; HepG2, siRNA GCGR",attenuated
same,cAMP,"[1]; HepG2, 10–1,000 pM",stimulated cAMP production dose-dependently
same,insulin release compared to PBS,"INS1 cells [2]; 1 nM, p < 0.001",significantly stimulated insulin release
same,PG 1-61-induced insulin secretion after siRNA knockdown of rGCGR vs mock,"INS1 cells [2]; 1 nM, p < 0.01",significantly blunted
same,insulin release compared to native glucagon,INS1 cells [2]; PG 1-61 1 nM,comparable to that of native glucagon
same,"blood glucose, in words",rats,increased significantly
same,plasma amino acids (summed molarity),rats,decreased significantly
same,plasma insulin,rats; no increase with mannitol,increased transiently
same,inhibition of glucagon secretion in diabetic animals,[3],not seem to inhibit the secretion of glucagon
same,"insulin secretion, tAUC",isolated rat pancreases,"3,534 ± 321 min × pM"
same,agonist class / potency in words at hGLP-1R,[4],very low potency
same,"activation of hGLP-1R, in words",[4]; Figure 3B legend,but not the human glucagon-like peptide 1 receptor (hGLP-1R)
same,"percent of Emax of GLP-1 reached at 1 μM, hGLP-1R",[4]; at a concentration of 1 μM,38%
same,accumulation of cAMP,INS1 cells [5],dose-dependently increased accumulation of cAMP
same,"protein levels of PKA, G6P, PKC-1, GP and PECK","[6]; 30-min incubation, 1,000 pM",significantly increased protein levels
same,"protein levels of PKA, G6P, PKC-1, GP and PECK","[6]; 3 hr incubation, compared with 30 min",more pronounced effects
same,protein levels of the enzymes in siRNA-treated cells,"[6]; siRNA GCGR-treated cells, 30-min incubation",tended to be lower
same,"fold decreased potency compared to native glucagon, hGCGR",[7]; from LogEC50 vs glucagon,100 fold
same,agonist class at hGCGR,[7]; transiently transfected COS-7 cells,full agonist
